These results are taken from patent US20230302010A1, “2-((4S)-6-(4-CHLOROPHENYL)-1-METHYL-4H-BENZO[C]ISOXAZOLO[4,5-E]AZEPIN-4-YL)ACETAMIDE FOR TREATING THROMBOCYTHEMIA” (Constellation Pharmaceuticals, Inc., priority 2020, published 2023).

For assay [1], the system named is patients with high-risk ET. The conditions noted are these: cited from earlier work.
Assay [2] has as its system IL6 release from THP-1 acute leukemia cells. The assay can be described thus: IL6 release from lipopolysaccharide-treated THP-1 cells. Type of assay: cell-based. The conditions noted are these: Homo sapiens; THP-1 cells exposed to lipopolysaccharide, then compound for 16 hours; read-out: IL6 release inhibition IC50. The protocol:
Compound 1 was assessed for its ability to suppress the expression of NF-κB target genes in two experiments. In one experiment, THP-1 acute leukemia cell lines were exposed to lipopolysaccharide treatment and then Compound 1 for 16 hours. […] In the other experiment, the ability of Compound 1 to suppress both IL6 and IL10 expression in TMD8 ABC-DLBCL cells was investigated (data on file). TMD8 cells were incubated with DMSO or 1.6 μM Compound 1 for 6 or 24 hours. RNA was then extracted from the cells and quantified using qRT-PCR.

Assay [3] relates to CD34+ cells isolated from healthy donor bone marrow. The assay can be described thus: Megakaryocyte differentiation of CD34+ cells (FACS, CD41a expression). The conditions noted are these: 14 days, FACS (FIG. 2). Type of assay: cell-based. Here is the method:
The effects of Compound 1 on megakaryocyte differentiation and proliferation were evaluated using CD34+ cells isolated from healthy donor bone marrow (data on file). The CD34+ cells were grown in megakaryocyte differentiation serum-free stem cell differentiation base medium with a megakaryocyte-driving cytokine cocktail for 14 days with DMSO or Compound 1 at concentrations ranging from 3 nM to 500 nM. The cells were then stained for CD34 (progenitor marker), CD45 (leukocyte marker) and CD41a (mature megakaryocyte marker) and assessed by FACS for viability and marker expression. CD41a expression and cell size were used as markers of megakaryocyte differentiation. […] The shift from high to low CD41a expression began at approximately 50 nM, with pronounced effects observed at 200 to 500 nM, as shown in FIG. 2.

Read-outs that look alike come from different tables or passages of the source.

For the compound `NC(=O)NO` [HU, hydroxyurea], the “survival from the beginning of treatment” value in assay [1] (14-year retrospective study, 166 high-risk ET patients) is 65%. Also, the patients who died in assay [1] (166 high-risk ET patients treated for a median of 4.5 years, median follow-up of seven years from diagnosis) was 23%. The 10-year overall survival in assay [1] (patients who achieved a complete response) is given as 79%; in assay [1] (patients with HU resistance), 26%.
By IC50 is commonly meant the concentration that gives 50% inhibition. On to `Cc1noc2c1-c1ccccc1C(c1ccc(Cl)cc1)=N[C@H]2CC(N)=O` [Compound 1, 2-((4S)-6-(4-chlorophenyl)-1-methyl-4H-benzo[c]isoxazolo[4,5-e]azepin-4-yl)acetamide], for which the IC50 in assay [2] came out at 69 nM. In assay [3], the “concentration at which shift from high to low CD41a expression began” value is reported as “approximately 50 nM”.
